Measured values taken from the supplement of paper PMC10627819.

Tests used:
[1] = system: B. subtilis 168; assay: Bliss interaction score (quartile over a dose matrix) (fitness difference); higher = more antagonism (negative = synergy)
Method in brief: (§1)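 At entry into stationary phase, OD595 was recorded and divided by the robust mean of the no-drug wells on that plate, with any value above 1 set to 1. This gives the fitness measure used throughout. Single-drug fitness was inferred from combination data, and the Bliss score, observed minus product-expected fitness, is shown as quartiles across technical, biological and donor/recipient replicates.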

[2] = system: S. aureus Newman; assay: as above
Method in brief: as §1

[3] = system: S. pneumoniae D39V; assay: as above
Method in brief: as §1

[4] = system: S. aureus DSM 20231; assay: as above
Method in brief: as §1

[5] = system: S. aureus Newman; assay: fitness (endpoint OD595 vs no drug) (fraction); higher = more growth
Method in brief: (§2)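 Bacterial growth was followed in 384-well plates seeded at OD595 0.01, with 30 µl per well, or 55 µl for S. pneumoniae, in TSB, LB Lennox or CY at 37 °C. OD595 was read every 30 min for 14 h, and each reading had the first reading subtracted as background. Fitness is the background-corrected optical density at entry into stationary phase divided by the robust mean of the no-drug control wells. This ratio is capped at 1.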

[6] = system: S. pneumoniae D39V; assay: as above
Method in brief: as §2
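For Bliss interaction score (quartile over a dose matrix) in this document: first quartile when negative (synergy) and third quartile when positive (antagonism).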

CC1(C)S[C@@H]2[C@H](NC(=O)[C@H](N)c3ccc(O)cc3)C(=O)N2[C@H]1C(=O)O [Amoxicillin] + C/C(=C\C(=O)OCCCCCCCCC(=O)O)C[C@@H]1OC[C@H](C[C@@H]2O[C@H]2[C@@H](C)[C@H](C)O)[C@@H](O)[C@H]1O [Pseudomonic acid]
Settings	Bliss interaction score
[1]	0.0663
[2]	-0.031
[3]	0.121
[4]	0.0169

fitness, one replicate
Settings	partner 0.03 µg/mL	partner 0.0313 µg/mL	partner 0.06 µg/mL	partner 0.0625 µg/mL	partner 0.12 µg/mL	partner 0.125 µg/mL
[5], first compound 0.0625 µg/mL	–	0.0402	–	0.0188	–	0.0414
[5], first compound 0.125 µg/mL	–	0.0188	–	0.0167	–	0.0327
[5], first compound 0.25 µg/mL	–	0.0112	–	0.0059	–	0.0163
[6], first compound 0.006 µg/mL	0.577	–	0.64	–	0.283	–

fitness, [6]
Settings	first compound 0.0008 µg/mL	first compound 0.0015 µg/mL	first compound 0.003 µg/mL
partner 0.03 µg/mL	0.888	0.974	0.932
partner 0.06 µg/mL	0.838	0.822	0.882
partner 0.12 µg/mL	0.586	0.68	–

CC1(C)S[C@@H]2[C@H](NC(=O)[C@H](N)c3ccc(O)cc3)C(=O)N2[C@H]1C(=O)O [Amoxicillin] + CC1=C(C(=O)O)N2C(=O)[C@@H](NC(=O)[C@H](N)c3ccccc3)[C@H]2SC1 [Cephalexin]
Settings	Bliss interaction score
[1]	0.0616
[2]	0.0592
[3]	-0.0619
[4]	0.0743

fitness
Settings	partner 0.25 µg/mL	partner 0.5 µg/mL	partner 1 µg/mL	partner 2 µg/mL	partner 4 µg/mL
[5], first compound 0.0625 µg/mL	0.877	0.882	0.942	–	–
[5], first compound 0.125 µg/mL	0.928	0.921	0.894	–	–
[5], first compound 0.25 µg/mL	0.877	0.928	0.888	–	–
[6], first compound 0.0015 µg/mL	–	–	0.791	0.337	0.0775
[6], first compound 0.003 µg/mL	–	–	0.544	0.125	0.0383

one replicate
Settings	fitness
[5], first compound 0.0625 µg/mL, partner 2 µg/mL	0.864
[5], first compound 0.125 µg/mL, partner 2 µg/mL	0.832
[5], first compound 0.25 µg/mL, partner 2 µg/mL	0.705
[6], first compound 0.0008 µg/mL, partner 0.125 µg/mL	0.978
[6], first compound 0.0008 µg/mL, partner 0.25 µg/mL	0.9
[6], first compound 0.0008 µg/mL, partner 0.5 µg/mL	0.881
[6], first compound 0.0008 µg/mL, partner 1 µg/mL	0.91
[6], first compound 0.0008 µg/mL, partner 2 µg/mL	0.494
[6], first compound 0.0008 µg/mL, partner 4 µg/mL	0.02
[6], first compound 0.0015 µg/mL, partner 0.125 µg/mL	0.922
[6], first compound 0.0015 µg/mL, partner 0.25 µg/mL	0.891
[6], first compound 0.0015 µg/mL, partner 0.5 µg/mL	0.906
[6], first compound 0.003 µg/mL, partner 0.125 µg/mL	0.857
[6], first compound 0.003 µg/mL, partner 0.25 µg/mL	0.835
[6], first compound 0.003 µg/mL, partner 0.5 µg/mL	0.849
[6], first compound 0.006 µg/mL, partner 1 µg/mL	0.0722
[6], first compound 0.006 µg/mL, partner 2 µg/mL	0.0153
[6], first compound 0.006 µg/mL, partner 4 µg/mL	0.0513

CC1(C)S[C@@H]2[C@H](NC(=O)[C@H](N)c3ccc(O)cc3)C(=O)N2[C@H]1C(=O)O [Amoxicillin] + CC(C1CCC(C(O1)OC2C(CC(C(C2O)OC3C(C(C(CO3)(C)O)NC)O)N)N)N)NC [Gentamicin]
main component drawn
Settings	Bliss interaction score
[1]	-0.0767
[2]	0.0602
[3]	0.055
[4]	0.0684

fitness, main component drawn
Settings	partner 0.375 µg/mL	partner 0.5 µg/mL	partner 0.75 µg/mL	partner 1 µg/mL	partner 1.5 µg/mL	partner 2 µg/mL	partner 4 µg/mL	partner 8 µg/mL
[5], first compound 0.0625 µg/mL	0.91	0.878	0.896	0.911	0.892	0.972	–	–
[5], first compound 0.125 µg/mL	0.984	0.851	≥ 1	0.899	0.974	0.968	–	–
[5], first compound 0.25 µg/mL	0.983	0.858	0.944	0.847	0.961	–	–	–
[6], first compound 0.0008 µg/mL	–	–	–	–	–	0.977	0.935	0.942
[6], first compound 0.0015 µg/mL	–	–	–	–	–	0.988	0.94	0.946
[6], first compound 0.003 µg/mL	–	–	–	–	–	0.926	0.9	0.851

fitness, one replicate, main component drawn
Settings	partner 2 µg/mL	partner 4 µg/mL	partner 8 µg/mL
[5], first compound 0.0625 µg/mL	–	0.0669	–
[5], first compound 0.125 µg/mL	–	0.0478	–
[5], first compound 0.25 µg/mL	–	0.0624	–
[6], first compound 0.006 µg/mL	0.587	0.634	0.508
